The values below come from ChEMBL document CHEMBL5465560, “Selectivity Literature for EUbOPEN Chemogenomic Library” (2024).

In experiment [1] the target is Protein-tyrosine kinase 6 (Homo sapiens, UniProt Q13882). The experiment is described as follows: Selectivity interaction (Kinase panel (Z-LYTE Assay)) EUB0001632a PTK6. The conditions noted are these: at 10 µM.
Experiment [2] concerns the target MAP/microtubule affinity-regulating kinase 3 (Homo sapiens) (UniProt P27448). The conditions noted are these: at 10 µM.
The target in experiment [3] is Casein kinase I isoform delta (Homo sapiens, UniProt P48730). The experiment is described as follows: Selectivity interaction (Kinase panel (Invitrogen)) EUB0000639a CSNK1D. Particulars: at 200 nM.
Sequence of Casein kinase I isoform delta (P48730 whole entry, looked up, canonical isoform): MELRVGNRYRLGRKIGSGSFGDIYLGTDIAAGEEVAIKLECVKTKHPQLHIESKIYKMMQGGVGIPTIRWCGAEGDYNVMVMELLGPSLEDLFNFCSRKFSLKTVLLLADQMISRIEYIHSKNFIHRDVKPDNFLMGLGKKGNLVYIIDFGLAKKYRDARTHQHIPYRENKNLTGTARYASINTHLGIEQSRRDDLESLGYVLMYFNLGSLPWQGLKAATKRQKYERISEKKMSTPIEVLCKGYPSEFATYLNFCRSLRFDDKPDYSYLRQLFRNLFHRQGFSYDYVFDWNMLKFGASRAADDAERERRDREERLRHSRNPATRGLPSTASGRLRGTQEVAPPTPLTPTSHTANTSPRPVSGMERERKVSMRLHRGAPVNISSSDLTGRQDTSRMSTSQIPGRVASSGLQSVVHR
Experiment [4] has as its target Glycogen synthase kinase-3 alpha (Homo sapiens, UniProt P49840). The experiment is described as follows: Selectivity interaction (ActivX KiNativ screen (kinase selectivity in THP-1 cell lysates)) EUB0000639a GSK3A. It is filed as subcellular. Particulars: lysate.
Experiment [5] addresses Glycogen synthase kinase-3 beta (Homo sapiens, UniProt P49841). The experiment is described as follows: Selectivity interaction (KinomeScan (DiscoverX)) EUB0000045b GSK3B.
The target in experiment [6] is 5'-AMP-activated protein kinase catalytic subunit alpha-2 (Homo sapiens) (UniProt P54646). In words: Selectivity interaction (KinomeScan (DiscoverX)) EUB0000045b PRKAA2.
Sequence of 5'-AMP-activated protein kinase catalytic subunit alpha-2 (Homo sapiens) (P54646 whole entry, looked up): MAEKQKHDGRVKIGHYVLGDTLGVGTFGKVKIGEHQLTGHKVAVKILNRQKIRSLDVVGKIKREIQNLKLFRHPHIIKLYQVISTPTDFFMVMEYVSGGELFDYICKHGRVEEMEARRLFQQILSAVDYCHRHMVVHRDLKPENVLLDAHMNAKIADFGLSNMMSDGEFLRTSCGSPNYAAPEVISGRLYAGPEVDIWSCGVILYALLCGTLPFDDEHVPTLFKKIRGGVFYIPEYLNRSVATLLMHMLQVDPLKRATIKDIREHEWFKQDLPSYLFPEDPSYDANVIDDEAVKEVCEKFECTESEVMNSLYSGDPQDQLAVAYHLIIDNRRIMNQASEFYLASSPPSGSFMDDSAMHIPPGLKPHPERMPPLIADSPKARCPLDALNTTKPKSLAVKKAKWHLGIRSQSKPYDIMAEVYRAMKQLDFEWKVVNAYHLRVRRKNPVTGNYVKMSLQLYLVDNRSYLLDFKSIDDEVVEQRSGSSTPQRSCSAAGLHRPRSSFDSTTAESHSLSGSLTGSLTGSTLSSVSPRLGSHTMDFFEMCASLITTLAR
Experiment [7] has as its target Dual specificity tyrosine-phosphorylation-regulated kinase 1A (Homo sapiens, UniProt Q13627). The experiment is described as follows: Selectivity interaction (Kinase panel (literature)) EUB0001199aCl DYRK1A. Particulars: at 1 µM.
The target in experiment [8] is Tyrosine-protein kinase receptor UFO (Homo sapiens) (UniProt P30530). The experiment is described as follows: Selectivity interaction (Ambit KINOMEscan and KiNATiv profiling in Jurkat cells) EUB0000090b AXL. It is filed as cell-based. Particulars: at 1 µM.
Sequence of Tyrosine-protein kinase receptor UFO (Homo sapiens) (P30530 whole entry): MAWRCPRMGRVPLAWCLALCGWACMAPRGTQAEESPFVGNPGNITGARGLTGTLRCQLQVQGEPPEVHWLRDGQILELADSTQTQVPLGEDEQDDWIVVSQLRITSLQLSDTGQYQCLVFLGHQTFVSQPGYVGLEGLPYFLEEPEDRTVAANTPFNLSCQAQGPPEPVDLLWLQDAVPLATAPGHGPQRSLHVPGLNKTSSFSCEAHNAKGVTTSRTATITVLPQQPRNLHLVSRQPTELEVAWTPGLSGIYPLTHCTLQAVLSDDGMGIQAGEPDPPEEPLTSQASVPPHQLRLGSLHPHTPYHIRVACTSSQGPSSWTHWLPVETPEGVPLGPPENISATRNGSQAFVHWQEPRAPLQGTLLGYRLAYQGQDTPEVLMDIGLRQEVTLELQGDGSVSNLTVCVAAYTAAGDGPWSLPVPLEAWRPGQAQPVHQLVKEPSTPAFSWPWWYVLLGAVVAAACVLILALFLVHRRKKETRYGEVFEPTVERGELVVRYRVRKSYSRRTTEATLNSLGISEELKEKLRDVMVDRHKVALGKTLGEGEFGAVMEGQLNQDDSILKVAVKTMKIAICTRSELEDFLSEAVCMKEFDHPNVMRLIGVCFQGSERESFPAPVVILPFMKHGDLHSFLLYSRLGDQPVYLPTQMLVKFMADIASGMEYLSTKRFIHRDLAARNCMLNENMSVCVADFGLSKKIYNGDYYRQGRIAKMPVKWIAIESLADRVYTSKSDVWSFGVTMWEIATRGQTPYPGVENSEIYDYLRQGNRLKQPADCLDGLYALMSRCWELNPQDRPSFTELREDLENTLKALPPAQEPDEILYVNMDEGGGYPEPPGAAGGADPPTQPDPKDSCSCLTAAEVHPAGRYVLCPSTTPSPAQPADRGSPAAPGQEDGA
The target of another experiment is Endothelin-1 receptor (Homo sapiens, UniProt P25101). In words: Selectivity interaction (Endothelin A receptor binding assay, human recombinant ) EUB0000877a EDNRA.
Experiment [9] addresses DNA (cytosine-5)-methyltransferase 1 (Homo sapiens) (UniProt P26358). The experiment is described as follows: Selectivity interaction (Methyltransferase screen (radiometric assays, panel of 8 PRMTs, 21 protein lysine methyltransferases, 3 DNA methyltransferases, and one RNA methyltransferase)) EUB0000272b DNMT1.
For experiment [10], the target named is T1, Serine/threonine-protein kinase Nek9 (Homo sapiens) (UniProt Q8TD19).
T1 sequence (whole entry): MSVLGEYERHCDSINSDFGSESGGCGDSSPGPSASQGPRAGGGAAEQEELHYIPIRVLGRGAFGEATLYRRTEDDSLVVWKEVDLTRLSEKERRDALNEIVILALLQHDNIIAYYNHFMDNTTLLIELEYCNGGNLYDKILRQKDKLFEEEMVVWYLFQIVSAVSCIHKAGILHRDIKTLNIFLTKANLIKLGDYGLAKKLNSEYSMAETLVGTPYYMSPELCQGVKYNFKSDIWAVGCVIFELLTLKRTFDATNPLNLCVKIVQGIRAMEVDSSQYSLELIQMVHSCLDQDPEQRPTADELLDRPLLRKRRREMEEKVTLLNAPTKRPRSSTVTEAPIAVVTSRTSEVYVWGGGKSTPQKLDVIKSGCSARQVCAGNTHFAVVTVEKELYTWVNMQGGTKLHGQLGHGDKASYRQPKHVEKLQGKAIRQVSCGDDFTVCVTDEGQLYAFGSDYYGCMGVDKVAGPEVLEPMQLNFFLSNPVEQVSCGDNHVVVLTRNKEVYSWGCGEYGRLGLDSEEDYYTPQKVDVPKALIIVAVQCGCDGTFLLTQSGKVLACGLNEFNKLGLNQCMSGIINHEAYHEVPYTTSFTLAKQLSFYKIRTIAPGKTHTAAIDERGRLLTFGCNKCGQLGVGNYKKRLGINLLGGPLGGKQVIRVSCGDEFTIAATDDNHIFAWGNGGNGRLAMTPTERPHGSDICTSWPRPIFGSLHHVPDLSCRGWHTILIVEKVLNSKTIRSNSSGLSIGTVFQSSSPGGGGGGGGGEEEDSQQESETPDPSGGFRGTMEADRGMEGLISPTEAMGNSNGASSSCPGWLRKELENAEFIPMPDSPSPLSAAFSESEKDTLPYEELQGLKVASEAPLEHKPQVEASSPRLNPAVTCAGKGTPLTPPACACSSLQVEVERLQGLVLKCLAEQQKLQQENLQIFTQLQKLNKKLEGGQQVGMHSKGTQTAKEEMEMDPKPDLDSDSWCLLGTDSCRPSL
The experiment is described as follows: Selectivity interaction (KinomeScan (DiscoverX)) EUB0000229b NEK9. Particulars: at 10 µM.

For experiment [11], the target named is Non-receptor tyrosine-protein kinase TYK2 (Homo sapiens, UniProt P29597). The experiment is described as follows: Selectivity interaction (KinomeScan (DiscoverX)) EUB0000229b TYK2. Particulars: at 10 µM.

A word on the pIC50: it is −log10 of the IC50, conventionally taken in molar units.

pIC50: −log10 of the molar value.

Sequence of Glycogen synthase kinase-3 alpha (P49840 2-483 limits assumed): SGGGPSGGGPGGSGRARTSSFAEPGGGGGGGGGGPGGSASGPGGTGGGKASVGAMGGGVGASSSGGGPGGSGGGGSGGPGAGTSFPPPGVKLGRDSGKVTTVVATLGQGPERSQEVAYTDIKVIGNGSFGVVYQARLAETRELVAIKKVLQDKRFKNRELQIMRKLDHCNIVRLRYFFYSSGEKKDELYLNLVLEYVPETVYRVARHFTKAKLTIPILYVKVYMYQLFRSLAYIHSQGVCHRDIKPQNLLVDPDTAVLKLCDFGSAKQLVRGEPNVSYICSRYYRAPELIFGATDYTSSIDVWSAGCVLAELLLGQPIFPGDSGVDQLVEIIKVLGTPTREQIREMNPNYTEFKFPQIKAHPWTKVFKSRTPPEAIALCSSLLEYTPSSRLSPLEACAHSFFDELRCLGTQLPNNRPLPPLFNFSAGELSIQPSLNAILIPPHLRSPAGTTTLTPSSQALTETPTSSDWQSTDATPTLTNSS
Sequence of Glycogen synthase kinase-3 beta (P49841 whole entry, looked up): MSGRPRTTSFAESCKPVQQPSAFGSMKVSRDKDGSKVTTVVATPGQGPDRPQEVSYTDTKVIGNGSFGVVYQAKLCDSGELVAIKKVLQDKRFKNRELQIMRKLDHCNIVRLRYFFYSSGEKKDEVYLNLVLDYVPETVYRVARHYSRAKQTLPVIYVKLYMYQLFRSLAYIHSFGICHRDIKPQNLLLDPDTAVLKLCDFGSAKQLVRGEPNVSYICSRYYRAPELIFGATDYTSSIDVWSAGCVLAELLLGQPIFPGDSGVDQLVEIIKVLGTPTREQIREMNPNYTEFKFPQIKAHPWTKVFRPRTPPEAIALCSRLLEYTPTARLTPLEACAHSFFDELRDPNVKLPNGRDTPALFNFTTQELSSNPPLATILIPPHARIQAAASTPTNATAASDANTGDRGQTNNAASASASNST
Sequence of DNA (cytosine-5)-methyltransferase 1 (Homo sapiens) (P26358 whole entry): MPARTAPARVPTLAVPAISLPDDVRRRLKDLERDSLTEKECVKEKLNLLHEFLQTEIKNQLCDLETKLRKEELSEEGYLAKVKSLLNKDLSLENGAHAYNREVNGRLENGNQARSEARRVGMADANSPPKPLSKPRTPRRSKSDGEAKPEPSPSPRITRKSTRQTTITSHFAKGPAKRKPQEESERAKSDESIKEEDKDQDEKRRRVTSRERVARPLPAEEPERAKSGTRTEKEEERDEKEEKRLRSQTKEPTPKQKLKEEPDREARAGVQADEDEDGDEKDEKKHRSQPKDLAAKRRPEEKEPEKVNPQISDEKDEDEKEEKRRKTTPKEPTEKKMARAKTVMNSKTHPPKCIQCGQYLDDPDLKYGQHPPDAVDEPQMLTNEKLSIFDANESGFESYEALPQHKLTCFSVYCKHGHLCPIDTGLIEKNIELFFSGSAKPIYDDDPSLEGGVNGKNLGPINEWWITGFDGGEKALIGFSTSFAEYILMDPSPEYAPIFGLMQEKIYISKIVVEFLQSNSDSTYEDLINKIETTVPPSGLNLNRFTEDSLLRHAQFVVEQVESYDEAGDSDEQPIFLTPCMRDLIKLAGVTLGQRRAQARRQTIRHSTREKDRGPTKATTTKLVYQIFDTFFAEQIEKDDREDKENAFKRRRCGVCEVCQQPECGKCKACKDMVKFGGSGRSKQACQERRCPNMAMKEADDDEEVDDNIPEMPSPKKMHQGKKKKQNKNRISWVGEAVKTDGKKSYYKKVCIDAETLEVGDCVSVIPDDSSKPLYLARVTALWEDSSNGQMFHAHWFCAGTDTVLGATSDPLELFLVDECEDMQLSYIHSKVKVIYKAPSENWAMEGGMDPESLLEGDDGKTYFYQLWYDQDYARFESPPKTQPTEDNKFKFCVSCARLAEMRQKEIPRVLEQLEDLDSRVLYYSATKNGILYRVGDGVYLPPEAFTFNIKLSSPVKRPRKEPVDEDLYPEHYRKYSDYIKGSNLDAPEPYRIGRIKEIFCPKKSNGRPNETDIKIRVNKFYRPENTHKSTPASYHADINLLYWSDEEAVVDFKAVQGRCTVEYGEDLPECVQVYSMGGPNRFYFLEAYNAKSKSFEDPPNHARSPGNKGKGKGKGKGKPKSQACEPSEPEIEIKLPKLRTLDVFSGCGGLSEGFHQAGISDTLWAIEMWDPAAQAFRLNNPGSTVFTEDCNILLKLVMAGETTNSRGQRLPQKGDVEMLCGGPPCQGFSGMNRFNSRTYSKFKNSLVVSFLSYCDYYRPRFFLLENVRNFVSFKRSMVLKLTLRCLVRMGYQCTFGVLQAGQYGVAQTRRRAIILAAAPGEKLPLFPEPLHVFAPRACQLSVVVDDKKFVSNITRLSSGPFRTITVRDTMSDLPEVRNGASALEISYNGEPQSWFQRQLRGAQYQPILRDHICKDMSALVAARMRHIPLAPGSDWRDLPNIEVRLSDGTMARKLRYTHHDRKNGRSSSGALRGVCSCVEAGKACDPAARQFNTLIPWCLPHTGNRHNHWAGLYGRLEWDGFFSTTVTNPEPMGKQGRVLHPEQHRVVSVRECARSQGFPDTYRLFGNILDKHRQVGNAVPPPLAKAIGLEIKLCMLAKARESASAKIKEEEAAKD
Sequence of Protein-tyrosine kinase 6 (Q13882 whole entry, looked up): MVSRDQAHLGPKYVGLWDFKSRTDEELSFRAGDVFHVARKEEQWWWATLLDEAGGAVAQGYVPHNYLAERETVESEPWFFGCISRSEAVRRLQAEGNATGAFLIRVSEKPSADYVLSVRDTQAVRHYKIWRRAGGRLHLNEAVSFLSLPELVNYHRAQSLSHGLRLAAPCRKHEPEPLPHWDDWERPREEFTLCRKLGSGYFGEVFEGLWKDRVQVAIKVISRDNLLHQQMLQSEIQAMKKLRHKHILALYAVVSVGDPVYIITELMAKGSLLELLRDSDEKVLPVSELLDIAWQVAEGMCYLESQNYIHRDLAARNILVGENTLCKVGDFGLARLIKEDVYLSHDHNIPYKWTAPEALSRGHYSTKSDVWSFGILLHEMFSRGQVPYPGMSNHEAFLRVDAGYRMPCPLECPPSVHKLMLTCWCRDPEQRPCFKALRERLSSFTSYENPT

The compound `Cn1cc(-n2cnc3c(NCc4nc5cc(Cl)c(Cl)cc5[nH]4)nc(N4CCOCC4)nc32)cn1` yielded a % of control in experiment [1] of 9.47%.

In experiment [2], `CCN(CC)CCCCNc1ncc2cc(-c3cc(OC)cc(OC)c3)c(NC(=O)NC(C)(C)C)nc2n1` showed a % of control of 100%.

As to `CC[C@@H]1[C@H](F)C(=O)N[C@@H]1COc1nccc2cc(C(N)=O)c(OC)cc12` [ZIMLOVISERTIB], the % of inhibition in [3] was 52.2%; in experiment [4] (at 0.01 µM), -6%; in experiment [4] (at 0.04 µM), -6.7%; in experiment [4] (at 0.2 µM), -1.9%; in experiment [4] (at 1 µM), 8.1%; in experiment [4] (at 5 µM), 18.5%.

Turning to `C=CC(=O)Nc1cc(-n2c(=O)ccc3cnc4ccc(-c5ccc(NS(C)(=O)=O)cc5)cc4c32)ccc1C`, the % of control in [5] (at 1 µM) turned out to be 100%; in experiment [5] (at 10 µM) it was 77%; in experiment [6] (at 1 µM), 92%; in experiment [6] (at 10 µM), 92%.

For `CN1Cc2nccc(-c3cn(C)nc3-c3ccc(F)cc3)c2C1=O`, the % of inhibition in experiment [7] was -3%.

Turning to `CN(C)C/C=C/C(=O)Nc1ccc(C(=O)N2CCCC(Nc3ncc(Cl)c(-c4c[nH]c5ccccc45)n3)C2)cc1` (centres undefined), in experiment [8], the % of control turned out to be 92%.

Take `CCC(=O)N1CC[C@H](Nc2ncnc3c2CN(c2cnc(OC)c(C(F)(F)F)c2)CC3)C1` [LENIOLISIB]: the pIC50 on Endothelin-1 receptor was under 4.52.

For `Cc1cc(C)cc([C@H]2c3cc(C)ccc3NC(=O)CN2C(=O)c2ccc(Br)s2)c1`, the values for the % of activity in experiment [9] (at 1 µM) and in experiment [9] (at 10 µM) were 98.7% and 104%, respectively.

Take `COc1cc(N(C)c2ccnc3ccc(C(F)(F)F)cc23)cc(OC)c1OC`: the % binding in experiment [10] came out at 93%; in [11] it was 89%.
